Like-named read-outs stand apart in the source and are kept apart here.

Test [1] deals with Acinetobacter baumannii (ATCC 19606). Description: Bacterial proliferation assay, A. baumannii. The class given is cell-based. From the text:
Bacterial Strains: Enterococcus faecium—(Orla-Jensen) Schleifer and Kilpper-Balz strain NCTC 7171 (ATCC 19434); Drug sensitive Staphylococcus aureus—Rosenbranch strain Seattle 1945 (ATCC 25923); Methicillin resistant S. aureus (MRSA)—Rosenbach strain HPV107 (ATCC BAA-44); Klebsiella Pneumonia—(Schroeter) Trevisan strain NCTC 9633 (ATCC 13883); Acinetobacter baumannii—Bouvet and Grimont strain 2208 (ATCC 19606); Pseudomonas aeruginosa—(Schroeter) Migula strain NCTC 10332 (ATCC 10145); Enterobacter cloacae—E. cloacae, subsp. cloacae (Jordan) Hormaeche and Edwards strain CDC 442-68 (ATCC 13047).
Growth Media: All bacteria were grown in Brain Heart Infusion (BHI) broth/agar (Becton, Dickinson and Company). All liquid cultures were grown in BHI media supplemented with 25 mg/L Ca^2+ and 12.5 mg/L Mg^2+ to mimic free physiological concentrations of these cations. A 10 mg/mL Ca^2+ stock solution was prepared by dissolving 3.68 g of CaCl2.2H2O in 100 mL of deionized water, and a 10 mg/mL Mg^2+ stock solution was prepared by dissolving 8.36 g of MgCl2.6H2O in 100 mL deionized water. Both stock solutions were filter-sterilized using 0.2 μm pore size cellulose-acetate filters. 2.5 mL of the sterile 10 mg/mL Ca^2+ stock and 1.25 mL of the sterile 10 mg/mL Mg^2+ stock solutions were added per 1 L of autoclaved BHI medium to obtain 25 mg/L Ca^2+ and 12.5 mg/L Mg^2+ ions, respectively.
General Assay Protocol: Stock bacterial cultures were streaked onto BHI agar plates and grown overnight at 37° C. Fresh aliquots of broth were inoculated with single bacterial colonies and the cultures were grown overnight at 37° C. with shaking (240 rpm) in cation adjusted BHI media. The following morning, the overnight cultures were sub-cultured (1:5 dilution) into fresh aliquots of cation adjusted BHI media and grown at 37° C. for 1-2 hours with shaking. After 2 h, cultures were diluted into fresh media to achieve final OD600 readings of 0.017. Aliquots of these diluted cultures (30 μL) were added to clear, flat-bottom, 384-well polystyrene plates that were stamped with 0.5 μL of test compounds in 20 μL media. […] Plates were sealed with “Breathe Easy” oxygen permeable membranes (Diversified Biotech) and left to incubate at 37° C. without shaking (stagnant assay). OD600 nm readings were taken at either 6-8 h (S. aureus, MRSA, K. pneumonia, E. cloacae, and P. aeruginosa) or 24 h (E. faecium and A. baumannii). A second set of baseline control plates were prepared analogously, but without any bacteria added, to correct for possible compound absorbance and/or precipitation. Plates were then read at 600 nm using a Molecular Devices SpectraMax Plus384 microplate reader. […] Results presented represent the averages of EC50 values obtained from at quadriplicate (duplicate of duplicate) replicates.

In a further test the target is T1, human HSP60/10 (Homo sapiens, UniProt P10809).
T1 construct: octa-Histidine tag (TEV-cleavable) (N, cleaved yes); made in house; host or cells: HSP60 in E. coli Rosetta 2 (DE3); HSP10 in Rosetta 2 (DE3) pLysS
Put plainly: HSP60/10-mediated dMDH refolding assay. The class given is biochemical. The method, then:
Reagent preparation: For these assays, four primary reagent stocks were prepared: 1) GroEUES-dMDH or HSP60/10-dMDH binary complex stock; 2) ATP initiation stock; 3) EDTA quench stock; 4) MDH enzymatic assay stock. Denatured MDH (dMDH) was prepared by 2-fold dilution of MDH (5 mg/ml, soluble pig heart MDH from Roche, product #10127248001) with denaturant buffer (7 M guanidine-HCl, 200 mM Tris, pH 7.4, and 50 mM DTT). MDH was completely denatured by incubating at room temperature for 45 min. The binary complex solutions were prepared by slowly adding the dMDH stock to a stirring stock with GroEL (or HSP60) in folding buffer (50 mM Tris-HCl, pH 7.4, 50 mM KCl, 10 mM MgCl2, and 1 mM DTT), followed by addition of GroES (or HSP10). The binary complex stocks were prepared immediately prior to dispensing into the assay plates and had final protein concentrations of 83.3 nM GroEL (Mr 800 kDa) or HSP60 (Mr 400 kDa), 100 nM GroES or HSP10 (Mr 70 kDa), and 20 nM dMDH in folding buffer. For the ATP initiation stock, ATP solid was diluted into folding buffer to a final concentration of 2.5 mM. Quench solution contained 600 mM EDTA (pH 8.0). The MDH enzymatic assay stock consisted of 20 mM sodium mesoxalate and 2.4 mM NADH in reaction buffer (50 mM Tris-HCl, pH 7.4, 50 mM KCl, and 1 mM DTT).
Assay Protocol: First, 30 μL aliquots of the GroEL/ES-dMDH or HSP60/10-dMDH binary complex stocks were dispensed into clear, 384-well polystyrene plates. […] The chaperonin-mediated refolding cycles were initiated by addition of 20 μL of ATP stock (reagent concentrations during refolding cycle: 50 nM GroEL or HSP60, 60 nM GroES or HSP10, 12 nM dMDH, 1 mM ATP, and compounds of 100 μM to 46 nM, 3-fold dilution series). The refolding reactions were incubated at 37° C. […] Next, the assay was quenched by addition of 10 μL of the EDTA to final concentration of 100 mM. […] A340 nm measurements were recorded at 0.5 minutes (start point) and at successive time points until the amount of NADH consumed reached ˜90% (end point, generally between 20-35 minutes). The differences between the start and end point A340 values were used to calculate the % inhibition of the GroEL/ES or HSP60/10 machinery by the compounds. […] Results presented represent the averages of IC50 values obtained from at least quadriplicate (duplicate of duplicate) replicates.

Setting [2] is: ATCC19606, OD600 at 24 h, read-out: Bacterial Proliferation EC50 A. baumannii.
Where [3] appears, read: ATCC19606, log of EC50 (μM scale), with standard deviation, read-out: log(EC50) Bacterial Proliferation Assay A. baumannii (converted).
Where [4] appears, read: human HSP60/10-dMDH refolding assay, read-out: HSP60/10-dMDH Refolding IC50.
[5] abbreviates: log(IC50) ± standard deviation, human HSP60/10-dMDH refolding assay, read-out: HSP60/10-dMDH Refolding Assay log(IC50) (converted).
The mark [6] stands for this setting: ATCC19606, 24 h, read-out: Bacterial Proliferation EC50 A. baumannii.
Where [7] appears, read: ATCC19606, read-out: log(EC50) Bacterial Proliferation Assay A. baumannii (converted).

T1 sequence (P10809 27-573): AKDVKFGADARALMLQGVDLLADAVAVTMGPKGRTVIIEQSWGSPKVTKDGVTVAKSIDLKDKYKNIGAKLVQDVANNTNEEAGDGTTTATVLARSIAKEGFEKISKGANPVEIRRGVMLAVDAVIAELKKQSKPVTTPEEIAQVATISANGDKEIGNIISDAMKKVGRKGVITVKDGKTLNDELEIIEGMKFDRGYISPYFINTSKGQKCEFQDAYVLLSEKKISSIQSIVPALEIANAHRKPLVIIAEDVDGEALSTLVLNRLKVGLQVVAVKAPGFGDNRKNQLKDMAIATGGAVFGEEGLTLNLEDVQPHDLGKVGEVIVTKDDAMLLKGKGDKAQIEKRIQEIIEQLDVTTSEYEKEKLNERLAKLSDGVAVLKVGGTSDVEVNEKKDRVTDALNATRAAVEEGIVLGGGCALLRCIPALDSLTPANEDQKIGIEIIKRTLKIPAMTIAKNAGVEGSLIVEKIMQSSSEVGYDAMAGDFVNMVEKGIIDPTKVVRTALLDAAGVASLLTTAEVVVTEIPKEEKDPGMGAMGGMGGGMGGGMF

As to `COc1c(Br)cccc1C(=O)Nc1ccc(Sc2nc3ccccc3s2)cc1` [Compound 34, N-(4-(Benzo[d]thiazol-2-ylthio)phenyl)-3-bromo-2-methoxybenzamide], the EC50 in test [1] (setting [2]) and in test [1] (setting [3]) was more than 100 µM each time. In addition, the IC50 on human HSP60/10 (setting [4]) and on human HSP60/10 (setting [5]) was more than 100 µM in each case.

On to `O=C(Nc1cccc(Cl)c1)c1cc(Br)cc(Br)c1` [Compound 23, 3,5-Dibromo-N-(3-chlorophenyl)benzamide], for which the EC50 in test [1] (setting [2]) and in test [1] (setting [3]) was more than 100 µM throughout. For the same compound, the IC50 on human HSP60/10 (setting [4]) and at human HSP60/10 (setting [5]) was more than 100 µM in each case.

`O=C(Nc1ccccc1)c1cc(Br)ccc1O` [Compound 15, 5-Bromo-2-hydroxy-N-phenylbenzamide]: the EC50 in test [1] (setting [2]) and in test [1] (setting [3]) was more than 100 µM throughout. In addition, the IC50 at human HSP60/10 (setting [4]) and at human HSP60/10 (setting [5]) was more than 100 µM in each case.

As for `O=C(Nc1ccc(Sc2nc3ccccc3s2)cc1)c1cccc(Br)c1` [Compound 21, N-(4-(Benzo[d]thiazol-2-ylthio)phenyl)-3-bromobenzamide], the EC50 in test [1] (setting [2]) and in test [1] (setting [3]) was more than 100 µM in each case. Besides, the IC50 at human HSP60/10 (setting [4]) and at human HSP60/10 (setting [5]) was more than 100 µM each time.

With `O=C(Nc1cccc(Cl)c1)c1cccc(Br)c1` [Compound 24, 3-Bromo-N-(3-chlorophenyl)benzamide], the EC50 in test [1] (setting [2]) and in test [1] (setting [3]) was more than 100 µM in each case. Besides, the IC50 on human HSP60/10 (setting [4]) and on human HSP60/10 (setting [5]) was more than 100 µM each time.

Regarding `O=C(Nc1ccccc1)c1cccc(Br)c1O` [Compound 14, 3-Bromo-2-hydroxy-N-phenylbenzamide], the EC50 in test [1] (setting [2]) and in test [1] (setting [3]) was more than 100 µM in each case. Moreover, the IC50 at human HSP60/10 (setting [4]) and at human HSP60/10 (setting [5]) was more than 100 µM in each case.

As for `COc1ccc(Br)cc1C(=O)Nc1ccc(Sc2nc3ccccc3s2)c(Cl)c1` [Compound 31, N-(4-(Benzo[d]thiazol-2-ylthio)-3-chlorophenyl)-5-bromo-2-methoxybenzamide], the EC50 in test [1] (setting [2]) and in test [1] (setting [3]) was more than 100 µM throughout. Moreover, the IC50 at human HSP60/10 (setting [4]) and at human HSP60/10 (setting [5]) was more than 100 µM each time.

`COc1c(Br)cc(Br)cc1C(=O)Nc1ccccc1` [Compound 41, 3,5-Dibromo-2-methoxy-N-phenylbenzamide]: the EC50 in test [1] (setting [2]) and in test [1] (setting [3]) was more than 100 µM in each case. Also, the IC50 on human HSP60/10 (setting [4]) and at human HSP60/10 (setting [5]) was more than 100 µM each time.

As to `O=C(Nc1ccc(Sc2nc3ccccc3s2)c(Cl)c1)c1cc(Br)ccc1O` [Compound 3, N-(4-(Benzo[d]thiazol-2-ylthio)-3-chlorophenyl)-5-bromo-2-hydroxybenzamide], the EC50 in test [1] (setting [6]) and in test [1] (setting [7]) was more than 100 µM in each case. Besides, the IC50 on human HSP60/10 (setting [4]) and on human HSP60/10 (setting [5]) was more than 100 µM throughout.

Turning to `O=C(Nc1cccc(Cl)c1)c1cc(Br)ccc1O` [Compound 11, 5-Bromo-N-(3-chlorophenyl)-2-hydroxybenzamide], the EC50 in test [1] (setting [6]) and in test [1] (setting [7]) was more than 100 µM throughout. Further, the IC50 on human HSP60/10 (setting [4]) and at human HSP60/10 (setting [5]) was more than 100 µM in each case.

With `O=C(Nc1ccc(Sc2nc3ccccc3s2)c(Cl)c1)c1cccc(Br)c1O` [Compound 2, N-(4-(Benzo[d]thiazol-2-ylthio)-3-chlorophenyl)-3-bromo-2-hydroxybenzamide], the results for the EC50 in test [1] (setting [6]) and in test [1] (setting [7]) were 2.9 µM and 2.88 µM, respectively. In addition, the IC50 on human HSP60/10 (setting [4]) was 6.9 µM; at human HSP60/10 (setting [5]) it was 6.92 µM.

As to `COc1ccc(Br)cc1C(=O)Nc1ccc(Sc2nc3ccccc3s2)cc1` [Compound 35, N-(4-(Benzo[d]thiazol-2-ylthio)phenyl)-5-bromo-2-methoxybenzamide], the EC50 in test [1] (setting [2]) and in test [1] (setting [3]) was more than 100 µM each time. Further, the IC50 at human HSP60/10 (setting [4]) and at human HSP60/10 (setting [5]) was more than 100 µM in each case.

For the compound `O=C(Nc1ccccc1)c1ccccc1O` [Compound 16, 2-Hydroxy-N-phenylbenzamide], the EC50 in test [1] (setting [6]) and in test [1] (setting [7]) was more than 100 µM in each case. This compound also gave an IC50 on human HSP60/10 of more than 100 µM. On human HSP60/10 (log(IC50) ± standard deviation, human HSP60/10-dMDH refolding assay), the “HSP60/10-dMDH Refolding Assay log(IC50)” value was more than 2.

For the compound `COc1ccc(Br)cc1C(=O)Nc1ccccc1` [Compound 43, 5-Bromo-2-methoxy-N-phenylbenzamide], the EC50 in test [1] (setting [2]) and in test [1] (setting [3]) was more than 100 µM in each case. In addition, the IC50 at human HSP60/10 (setting [4]) and at human HSP60/10 (setting [5]) was more than 100 µM each time.

For `O=C(Nc1ccc(Sc2nc3ccccc3s2)c(Cl)c1)c1ccccc1O` [Compound 4, N-(4-(Benzo[d]thiazol-2-ylthio)-3-chlorophenyl)-2-hydroxybenzamide], the EC50 in test [1] (setting [2]) and in test [1] (setting [3]) was more than 100 µM throughout. The IC50 on human HSP60/10 (setting [4]) and at human HSP60/10 (setting [5]) was more than 100 µM in each case.

`O=C(Nc1ccc(Sc2nc3ccccc3s2)cc1)c1ccccc1O` [Compound 8, N-(4-(Benzo[d]thiazol-2-ylthio)phenyl)-2-hydroxybenzamide]: the EC50 in test [1] (setting [2]) and in test [1] (setting [3]) was more than 100 µM in each case. Besides, the IC50 on human HSP60/10 (setting [4]) and at human HSP60/10 (setting [5]) was more than 100 µM each time.

Take `CO[C@H]1/C=C/O[C@@]2(C)Oc3c(C)c(O)c4c(O)c(c(/C=N/N5CCN(C)CC5)c(O)c4c3C2=O)NC(=O)/C(C)=C\C=C\[C@H](C)[C@H](O)[C@@H](C)[C@@H](O)[C@@H](C)[C@H](OC(C)=O)[C@@H]1C` [Rifampicin, rifampicin, reference compound]: the values for the EC50 in test [1] (setting [2]) and in test [1] (setting [3]) were 1.3 µM and 1.32 µM, respectively. The IC50 at human HSP60/10 (setting [4]) and at human HSP60/10 (setting [5]) was more than 100 µM each time.

(Values after US20210395210A1, “INHIBITION OF BACTERIAL CHAPERONIN SYSTEMS” (THE TRUSTEES OF INDIANA UNIVERSITY, priority 2018, published 2021).)
